Consider 16 compounds from patent publication US9834542B2, “LXR modulators” (BRISTOL-MYERS SQUIBB COMPANY, priority 2013, dated 2017).

The assay concerns the target T1, LXRβ (Homo sapiens, UniProt P55055).
T1 construct: Co-transfection expression plasmids, comprising full-length LXRα (pCMX-h LXRα[…] or LXRβ (pCMX-hLXRβ)); expressed in transfected cells; host or cells: CV-1 African Green Monkey Kidney Cells
T1 sequence (P55055 1-460): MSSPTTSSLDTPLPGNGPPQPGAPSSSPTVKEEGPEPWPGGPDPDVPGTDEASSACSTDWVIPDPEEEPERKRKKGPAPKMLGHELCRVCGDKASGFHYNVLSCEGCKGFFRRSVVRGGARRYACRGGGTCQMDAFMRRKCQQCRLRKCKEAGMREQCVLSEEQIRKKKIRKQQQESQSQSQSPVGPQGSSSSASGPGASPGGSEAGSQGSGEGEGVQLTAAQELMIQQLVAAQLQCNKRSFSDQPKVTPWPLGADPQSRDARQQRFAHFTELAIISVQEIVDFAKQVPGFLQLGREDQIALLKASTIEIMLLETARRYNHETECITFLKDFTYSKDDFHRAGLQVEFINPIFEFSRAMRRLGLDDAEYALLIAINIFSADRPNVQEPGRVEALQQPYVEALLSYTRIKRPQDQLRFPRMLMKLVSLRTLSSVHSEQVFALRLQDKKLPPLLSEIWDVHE
T1 sequence (P19793 1-462 partner): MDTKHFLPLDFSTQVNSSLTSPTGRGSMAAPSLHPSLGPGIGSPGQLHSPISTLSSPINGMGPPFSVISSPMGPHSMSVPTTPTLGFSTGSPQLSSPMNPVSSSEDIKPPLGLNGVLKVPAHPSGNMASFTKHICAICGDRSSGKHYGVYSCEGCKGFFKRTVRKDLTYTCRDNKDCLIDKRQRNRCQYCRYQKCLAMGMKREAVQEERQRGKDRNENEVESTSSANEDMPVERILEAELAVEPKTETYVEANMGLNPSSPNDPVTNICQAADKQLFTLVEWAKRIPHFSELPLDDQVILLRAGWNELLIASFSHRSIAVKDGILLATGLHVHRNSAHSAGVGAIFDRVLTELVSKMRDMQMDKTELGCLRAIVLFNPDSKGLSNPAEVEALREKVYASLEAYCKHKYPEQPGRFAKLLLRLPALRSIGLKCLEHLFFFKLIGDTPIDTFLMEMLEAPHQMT
In words: Co-transfection assay (LXRE luciferase reporter), LXRβ. It is filed as cell-based. The settings on record: for pEC50: CV-1 cells transfected with pCMX-hLXRβ and LXREx1-Tk-Luciferase, 20 hours incubation; for Emax: LXRβ co-transfection, relative to high control 1-(2,4-difluorobenzyl)-2-oxo-6-(4-phenoxyphenyl)-4-(trifluoromethyl)-1,2-dihydropyridine-3-carbonitrile, read-out: % Efficacy. In a few lines: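 CV-1 cells transiently co-transfected with full-length human LXRβ (or LXRα), LXREx1-Tk-luciferase reporter and β-galactosidase control; compound added (10 μM final in single-point, 11-point ½-log curves, ≤0.5% DMSO) for 20 h at 37 °C. Luciferase read; EC50 from four-parameter fit, efficacy relative to reference agonist high control.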

SMILES strings stand for the structures. pEC50: −log10 of the molar value.

On to `Cc1nc(C(F)(F)F)cn1-c1ccc(-c2ccc(CO)c(S(C)(=O)=O)c2)cc1-n1nncc1-c1ccc(OC(F)(F)F)cc1` [Example 90, [3-(methylsulfonyl)-4′-[2-methyl-4-(trifluoromethyl)-1H-imidazol-1-yl]-3′-(5-{4-[(trifluoromethyl)oxy]phenyl}-1H-1,2,3-triazol-1-yl)biphenyl-4-yl]methanol], for which the pEC50 is 6.75 and the Emax amounted to 105%.

As to `Cc1nc(C(F)(F)F)cn1-c1ccc(-c2cc(F)cc(S(C)(=O)=O)c2)cc1-n1nncc1-c1ccc(OC(F)(F)F)cc1` [Example 91, 1-{3′-fluoro-5′-(methylsulfonyl)-4-[2-methyl-4-(trifluoromethyl)-1H-imidazol-1-yl]biphenyl-3-yl}-5-{4-[(trifluoromethyl)oxy]phenyl}-1H-1,2,3-triazole], the pEC50 is 6.32 and the Emax was 109%.

Turning to `CCS(=O)(=O)c1cc(-c2ccc(-n3cc(C(F)(F)F)nc3C)c(-n3nncc3-c3ccc(OC(F)(F)F)cc3)c2)cc(F)c1CO` [Example 92, [3-(ethylsulfonyl)-5-fluoro-4′-[2-methyl-4-(trifluoromethyl)-1H-imidazol-1-yl]-3′-(5-{4-[(trifluoromethyl)oxy]phenyl}-1H-1,2,3-triazol-1-yl)biphenyl-4-yl]methanol], the pEC50 was 6.30 and the Emax worked out at 93%.

Turning to `COc1ccc(-c2cnnn2-c2cc(-c3cccc(S(C)(=O)=O)c3)ccc2-n2cc(C(F)(F)F)nc2C)c(OC)c1` [Example 93, 5-[2,4-bis(methyloxy)phenyl]-1-{3′-(methylsulfonyl)-4-[2-methyl-4-(trifluoromethyl)-1H-imidazol-1-yl]biphenyl-3-yl}-1H-1,2,3-triazole], the pEC50 is 5.67 and the Emax was 40%.

In the case of `COc1ccc(-c2ccc(-n3cc(C(F)(F)F)nc3C)c(-n3nncc3-c3ccc(OC(F)(F)F)cc3)c2)cc1S(C)(=O)=O` [Example 94, 1-{4′-(methyloxy)-3′-(methylsulfonyl)-4-[2-methyl-4-(trifluoromethyl)-1H-imidazol-1-yl]biphenyl-3-yl}-5-{4-[(trifluoromethyl)oxy]phenyl}-1H-1,2,3-triazole], the pEC50 is 5.63 and the Emax is 71%.

As for `Cc1nc(C(F)(F)F)cn1-c1ccc(-c2cccc(C(C)(C)C(=O)O)c2)cc1-n1nncc1-c1ccc(OC(F)(F)F)cc1` [Example 95, 2-methyl-2-{4′-[2-methyl-4-(trifluoromethyl)-1H-imidazol-1-yl]-3′-(5-{4-[(trifluoromethyl)oxy]phenyl}-1H-1,2,3-triazol-1-yl)biphenyl-3-yl}propanoic acid], the pEC50 is 5.55 and the Emax is 139%.

`Cc1nc(C(F)(F)F)cn1-c1ccc(-c2cccc(S(=O)(=O)C(C)C)c2)cc1-n1nncc1-c1ccc(OC(F)(F)F)cc1` [Example 98, 1-{3′-[(1-methylethyl)sulfonyl]-4-[2-methyl-4-(trifluoromethyl)-1H-imidazol-1-yl]biphenyl-3-yl}-5-{4-[(trifluoromethyl)oxy]phenyl}-1H-1,2,3-triazole]: the pEC50 was 5.99 and the Emax turned out to be 91%.

With `Cc1nc(C(F)(F)F)cn1-c1cc(F)c(-c2cccc(S(C)(=O)=O)c2)cc1-n1nncc1-c1ccc(OC(F)(F)F)cc1` [Example 99, 1-{6-fluoro-3′-(methylsulfonyl)-4-[2-methyl-4-(trifluoromethyl)-1H-imidazol-1-yl]biphenyl-3-yl}-5-{4-[(trifluoromethyl)oxy]phenyl}-1H-1,2,3-triazole], the pEC50 was 6.00 and the Emax came to 86%.

Regarding `Cc1nc(C(F)(F)F)cn1-c1cc(F)c(-c2cccc(S(C)(=O)=O)c2)cc1-n1nncc1-c1ccc(Cl)cc1` [Example 100, 5-(4-chlorophenyl)-1-{6-fluoro-3′-(methylsulfonyl)-4-[2-methyl-4-(trifluoromethyl)-1H-imidazol-1-yl]biphenyl-3-yl}-1H-1,2,3-triazole], the pEC50 is 5.95 and the Emax was found to be 97%.

As for `Cc1nc(C(F)(F)F)cn1-c1cc(F)c(-c2cccc(S(C)(=O)=O)c2)cc1-n1nncc1-c1ccc(Cl)cc1Cl` [Example 101, 5-(2,4-dichlorophenyl)-1-{6-fluoro-3′-(methylsulfonyl)-4-[2-methyl-4-(trifluoromethyl)-1H-imidazol-1-yl]biphenyl-3-yl}-1H-1,2,3-triazole], the pEC50 is 6.11 and the Emax was 73%.

Turning to `Cc1nc(C(F)(F)F)cn1-c1ccc(-c2cc(F)c(CO)c(S(C)(=O)=O)c2)c(Cl)c1-n1nncc1-c1ccc(Cl)cc1` [Example 102, {2′-chloro-3′-[5-(4-chlorophenyl)-1H-1,2,3-triazol-1-yl]-3-fluoro-5-(methylsulfonyl)-4′-[2-methyl-4-(trifluoromethyl)-1H-imidazol-1-yl]biphenyl-4-yl}methanol], the pEC50 is 5.71 and the Emax is 57%.

For `Cc1nc(C(F)(F)F)cn1-c1ccc(-c2cc(F)c(CO)c(S(C)(=O)=O)c2)c(Cl)c1-n1nncc1-c1ccc(Cl)cc1Cl` [Example 103, {2′-chloro-3′-[5-(2,4-dichlorophenyl)-1H-1,2,3-triazol-1-yl]-3-fluoro-5-(methylsulfonyl)-4′-[2-methyl-4-(trifluoromethyl)-1H-imidazol-1-yl]biphenyl-4-yl}methanol], the negative-log EC50 (pEC50) is 5.91 and the Emax is 52%.

For `Cc1ccc(C(C)c2cnnn2-c2cc(-c3cccc(S(=O)(=O)N(C)C)c3)ccc2-n2cc(C(F)(F)F)nc2C)cc1` (centres unmarked) [Example 105, N,N-dimethyl-3′-{5-[1-(4-methylphenyl)ethyl]-1H-1,2,3-triazol-1-yl}-4′-[2-methyl-4-(trifluoromethyl)-1H-imidazol-1-yl]biphenyl-3-sulfonamide], the pEC50 was 6.64 and the Emax came to 70%.

As to `Cc1nc(C(F)(F)F)cn1-c1ccc(-c2cc(F)c(CO)c(S(C)(=O)=O)c2)cc1-n1nncc1C1(c2ccc(Cl)cc2)CC1` [Example 106, (3′-{5-[1-(4-chlorophenyl)cyclopropyl]-1H-1,2,3-triazol-1-yl}-3-fluoro-5-(methylsulfonyl)-4′-[2-methyl-4-(trifluoromethyl)-1H-imidazol-1-yl]biphenyl-4-yl)methanol], the pEC50 was 6.55 and the Emax was 48%.

As for `CCS(=O)(=O)c1cccc(-c2ccc(-n3cc(C(F)(F)F)nc3C)c(-n3nncc3C(C)c3ccc(C)cc3)c2)c1` (centres unmarked) [Example 107, 1-{3′-(ethylsulfonyl)-4-[2-methyl-4-(trifluoromethyl)-1H-imidazol-1-yl]biphenyl-3-yl}-5-[1-(4-methylphenyl)ethyl]-1H-1,2,3-triazole], the pEC50 was 6.70 and the Emax was 83%.

For the compound `Cc1nc(C(F)(F)F)cn1-c1ccc(-c2cccc(S(C)(=O)=O)c2)cc1-n1nncc1C(C)c1ccc(Cl)cc1` (centres unmarked) [Example 108, 5-[1-(4-chlorophenyl)ethyl]-1-{3′-(methylsulfonyl)-4-[2-methyl-4-(trifluoromethyl)-1H-imidazol-1-yl]biphenyl-3-yl}-1H-1,2,3-triazole], the negative logarithm of the EC50 (pEC50) was 6.83 and the Emax was determined as 62%.
